Experimental data reported in patent publication US20260285855A1, “HETEROARYL DERIVATIVES AS DDRS INHIBITORS” (CHIESI FARMACEUTICI S.P.A., priority 2023, published 2026).

How the values were obtained:
[1] = target: T1, DDR1 (Homo sapiens, UniProt Q08345); assay: LanthaScreen Europium Kinase Binding assay, DDR1; details: same binding assay, numeric values
T1 construct: purchased Carna Biosciences
Procedure: (§1) DDR1 and DDR2 binding assays were performed using Life Technologies LanthaScreen™ Europium Kinase Binding assay. […] IC50 values were determined in GraphPad Prism 7.0 software, using 4 parameter model: log (inhibitor) vs. response. IC50 values were converted in Ki using the Cheng-Prusoff equation (Ki-IC50/(1+ [Tracer]/Kd).

[2] = target: T2, DDR2 (Homo sapiens, UniProt Q16832); assay: LanthaScreen Europium Kinase Binding assay, DDR2; details: same binding assay, numeric values
T2 construct: purchased Life Technologies
T2 sequence (Q16832 22-855): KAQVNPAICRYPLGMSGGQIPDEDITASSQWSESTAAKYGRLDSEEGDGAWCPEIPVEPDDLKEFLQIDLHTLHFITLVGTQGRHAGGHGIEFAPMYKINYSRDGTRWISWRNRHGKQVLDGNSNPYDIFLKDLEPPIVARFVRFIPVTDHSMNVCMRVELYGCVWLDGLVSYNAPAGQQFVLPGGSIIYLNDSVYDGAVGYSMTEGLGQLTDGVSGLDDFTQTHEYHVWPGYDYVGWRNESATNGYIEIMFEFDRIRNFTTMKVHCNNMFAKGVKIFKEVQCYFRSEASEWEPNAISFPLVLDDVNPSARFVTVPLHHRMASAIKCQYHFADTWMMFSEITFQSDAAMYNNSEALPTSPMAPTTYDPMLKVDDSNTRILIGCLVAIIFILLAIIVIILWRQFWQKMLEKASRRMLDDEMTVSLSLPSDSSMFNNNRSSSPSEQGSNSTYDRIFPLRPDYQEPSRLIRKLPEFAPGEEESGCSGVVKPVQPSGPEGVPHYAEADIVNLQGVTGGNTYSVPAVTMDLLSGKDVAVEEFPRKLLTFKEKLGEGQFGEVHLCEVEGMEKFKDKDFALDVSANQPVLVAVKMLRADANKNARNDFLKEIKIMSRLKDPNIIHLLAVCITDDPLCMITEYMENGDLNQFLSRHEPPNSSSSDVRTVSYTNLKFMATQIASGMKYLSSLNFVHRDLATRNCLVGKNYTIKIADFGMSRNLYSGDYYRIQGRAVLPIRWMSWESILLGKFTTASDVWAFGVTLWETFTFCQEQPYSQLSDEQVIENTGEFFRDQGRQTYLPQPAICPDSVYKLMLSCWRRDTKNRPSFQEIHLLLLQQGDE
Procedure: as §1

T1 sequence (Q08345 19-913): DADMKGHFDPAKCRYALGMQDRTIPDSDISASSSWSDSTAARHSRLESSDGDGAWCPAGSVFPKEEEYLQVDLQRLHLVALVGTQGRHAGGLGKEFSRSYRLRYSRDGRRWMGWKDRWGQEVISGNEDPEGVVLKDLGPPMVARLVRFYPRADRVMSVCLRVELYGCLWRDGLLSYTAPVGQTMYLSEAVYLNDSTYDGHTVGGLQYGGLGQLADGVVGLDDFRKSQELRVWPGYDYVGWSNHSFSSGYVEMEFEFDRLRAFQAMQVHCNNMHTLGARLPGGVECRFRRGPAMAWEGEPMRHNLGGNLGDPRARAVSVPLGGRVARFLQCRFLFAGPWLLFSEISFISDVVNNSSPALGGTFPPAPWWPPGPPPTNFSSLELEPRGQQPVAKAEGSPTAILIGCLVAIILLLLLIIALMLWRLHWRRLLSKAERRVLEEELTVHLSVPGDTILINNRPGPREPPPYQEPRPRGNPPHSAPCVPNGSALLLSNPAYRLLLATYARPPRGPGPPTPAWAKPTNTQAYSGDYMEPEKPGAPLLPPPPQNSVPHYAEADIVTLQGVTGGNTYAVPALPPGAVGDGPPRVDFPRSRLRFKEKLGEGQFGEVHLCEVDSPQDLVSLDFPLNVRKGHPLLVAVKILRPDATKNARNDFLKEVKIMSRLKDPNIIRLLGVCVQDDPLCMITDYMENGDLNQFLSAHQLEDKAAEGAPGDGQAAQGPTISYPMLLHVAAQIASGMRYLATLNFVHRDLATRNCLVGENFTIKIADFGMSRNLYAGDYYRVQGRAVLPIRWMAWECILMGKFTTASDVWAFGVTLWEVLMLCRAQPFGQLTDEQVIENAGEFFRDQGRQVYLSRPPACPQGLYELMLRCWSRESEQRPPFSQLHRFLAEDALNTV

DDR1 Ki (nM) [1]: did not show a binding affinity
Ki ([1]; read-out: DDR1 Ki): > 500 nM
DDR2 Ki (nM) [2]: did not show a binding affinity
Ki ([2]; read-out: DDR2 Ki): > 500 nM
Structure (SMILES): O=C(NC1CC2(C1)CN(C(=O)Nc1cccc(C(F)(F)F)c1)C2)c1cnn2ccncc12 [Example C3, N-(2-((3-(trifluoromethyl)phenyl)carbamoyl)-2-azaspiro[3.3]heptan-6-yl) pyrazolo[1,5-a]pyrazine-3-carboxamide, reference compound]
